This note sets out measurements from BindingDB's records for doi:10.1021/jm040209d (University of Illinois At Urbana-Champaign, 2005).

The target in this test is Farnesyl diphosphate synthase (Leishmania major). Nature of the test: Binding affinity towards Farnesyl diphosphate synthase from leishmania major.
For `O=P([O-])(O)C(O)(C[n+]1cccc(F)c1)P(=O)(O)O` (configuration not stated) [hydrogen 2-(3-fluoropyridinium-1-yl)-1-hydroxy-1-phosphonoethylphosphonate], the affinity corresponds to a Ki of 50 nM. To `CCCCc1ccc[n+](CC(O)(P(=O)([O-])O)P(=O)(O)O)c1` (configuration not stated) [hydrogen 2-(3-butylpyridinium-1-yl)-1-hydroxy-1-phosphonoethylphosphonate] belongs 20 nM; to `O=P([O-])(O)C(O)(C[n+]1cccc(Cc2ccccc2)c1)P(=O)(O)O` (configuration not stated) [hydrogen 2-(3-benzylpyridinium-1-yl)-1-hydroxy-1-phosphonoethylphosphonate], 160 nM; to `O=P([O-])(O)C(O)(C[n+]1cccc(-c2ccc(O)cc2)c1)P(=O)(O)O` (configuration not stated) [sodium hydrogen 1-hydroxy-2-[3-(4-oxidophenyl)pyridinium-1-yl]-1-phosphonoethylphosphonate], 75 nM.

`COc1ccc[n+](CC(O)(P(=O)([O-])O)P(=O)(O)O)c1` (configuration not stated) [hydrogen 1-hydroxy-2-(3-methoxypyridinium-1-yl)-1-phosphonoethylphosphonate] registered a Ki of 30 nM. For the compound `Cc1cccc(Cc2ccc[n+](CC(O)(P(=O)([O-])O)P(=O)(O)O)c2)c1` (configuration not stated) [hydrogen 1-hydroxy-2-[3-(3-methylbenzyl)pyridinium-1-yl]-1-phosphonoethylphosphonate], the inhibition constant (Ki) came out at 70 nM. To `Cc1ccc[n+](CC(O)(P(=O)([O-])O)P(=O)(O)O)c1` (configuration not stated) [hydrogen 1-hydroxy-2-(3-methylpyridinium-1-yl)-1-phosphonoethylphosphonate] belongs 38 nM.
